Data taken from ChEMBL document CHEMBL4411335, “Identification and Optimization of Novel Small c-Abl Kinase Activators Using Fragment and HTS Methodologies” (J Med Chem, 2019).
In brackets after ≈: the same amount, converted by molar mass.

Columns and labels:
[1] = Terminal plasma concentration in CD1 mouse at 100 mg/kg, ip after 40 mins; type: ADME, organism-based; conditions: read-out: Cp(T)
[2] = target: T1, Tyrosine-protein kinase ABL1 (Homo sapiens, UniProt P00519); assay: Activation of full length human 6His-tagged c-Abl expressed in baculovirus expression system using abltide as substrate after 2 hrs by IMAP assay; conditions: read-out: pIC50 (converted)
[3] = Intrinsic clearance in CD1 mouse liver microsomes at 0.5 uM measured up 60 mins in presence of NADPH by LC-MS/MS analysis; type: ADME, Microsome; conditions: 1 h
[4] = Kinetic solubility of the compound at pH 7.4 after 1 hr by CLND-based assay; type: physicochemical; conditions: buffer, read-out: Kinetic_solubility
[5] = target: Tyrosine-protein kinase ABL1 (Homo sapiens, UniProt P00519, D382N); assay: Displacement of Myr-GQQPGKVLGDQRRPSL(K-TAMRA)G-amide from N-terminal-truncated human c-ABL D382N mutant (46 to 534 residues) after 30 mins by fluorescence polarization binding assay
Mus musculus [6] = assay: In vivo activation of c-ABL in CD1 mouse assessed as fold increase in phosphorylated CRKL level at 100 mg/kg, ip after 180 mins relative to total CRK-L protein level; type: functional
[7] = Toxicity in CD1 mouse assessed as induction of hemolysis at 100 mg/kg, BID for 10 days; type: organism-based; conditions: in vivo, 240 h
[8] = target: T1, Tyrosine-protein kinase ABL1; assay: Induction of human c-ABL phosphorylation at Y245/Y412 residues in bacmam-induced HEK-MSR2 cell lysates by in-cell Western blot analysis; type: subcellular, Lysate
[9] = Permeability of the compound at […] after 3 hrs by artificial membrane permeability assay; type: ADME; conditions: PAMPA; read-out: permeability
[10] = Terminal plasma concentration in CD1 mouse at 100 mg/kg, ip after 180 mins; type: ADME, organism-based; conditions: read-out: Cp(T)
Mus musculus [11] = assay: In vivo activation of c-ABL in CD1 mouse assessed as fold increase in phosphorylated CRKL level at 100 mg/kg, ip after 40 mins relative to total CRK-L protein level; type: functional

T1 sequence (P00519 whole entry): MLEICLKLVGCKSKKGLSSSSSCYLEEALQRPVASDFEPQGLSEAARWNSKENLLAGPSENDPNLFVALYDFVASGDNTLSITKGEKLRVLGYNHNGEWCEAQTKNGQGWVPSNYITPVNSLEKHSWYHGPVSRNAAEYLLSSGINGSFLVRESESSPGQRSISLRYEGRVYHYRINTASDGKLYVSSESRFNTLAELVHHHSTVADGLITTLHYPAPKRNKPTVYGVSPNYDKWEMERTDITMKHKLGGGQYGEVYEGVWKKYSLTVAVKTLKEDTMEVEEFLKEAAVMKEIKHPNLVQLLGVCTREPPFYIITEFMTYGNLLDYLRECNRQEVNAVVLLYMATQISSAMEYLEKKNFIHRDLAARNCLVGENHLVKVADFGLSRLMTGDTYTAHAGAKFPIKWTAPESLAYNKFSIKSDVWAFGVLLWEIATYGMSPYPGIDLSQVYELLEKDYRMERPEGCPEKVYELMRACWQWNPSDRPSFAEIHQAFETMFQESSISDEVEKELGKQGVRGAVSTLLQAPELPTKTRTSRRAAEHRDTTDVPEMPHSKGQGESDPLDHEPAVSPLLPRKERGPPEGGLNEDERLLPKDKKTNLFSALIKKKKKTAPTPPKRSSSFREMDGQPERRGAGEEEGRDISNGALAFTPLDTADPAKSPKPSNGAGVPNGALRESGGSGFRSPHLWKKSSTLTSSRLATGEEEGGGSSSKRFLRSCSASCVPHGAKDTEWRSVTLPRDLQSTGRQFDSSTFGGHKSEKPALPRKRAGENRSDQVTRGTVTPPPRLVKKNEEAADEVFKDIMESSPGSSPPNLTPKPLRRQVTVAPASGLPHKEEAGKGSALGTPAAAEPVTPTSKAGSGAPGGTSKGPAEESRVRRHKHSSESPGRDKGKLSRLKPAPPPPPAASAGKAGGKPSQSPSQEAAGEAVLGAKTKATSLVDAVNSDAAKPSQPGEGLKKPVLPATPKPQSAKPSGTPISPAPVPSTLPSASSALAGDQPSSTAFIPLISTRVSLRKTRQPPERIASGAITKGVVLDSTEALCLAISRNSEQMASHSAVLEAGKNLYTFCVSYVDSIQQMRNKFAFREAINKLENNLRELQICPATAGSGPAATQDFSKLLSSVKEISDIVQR
Chain of Tyrosine-protein kinase ABL1 (Homo sapiens, UniProt P00519, D382N) (P00519 as listed by the source D382N): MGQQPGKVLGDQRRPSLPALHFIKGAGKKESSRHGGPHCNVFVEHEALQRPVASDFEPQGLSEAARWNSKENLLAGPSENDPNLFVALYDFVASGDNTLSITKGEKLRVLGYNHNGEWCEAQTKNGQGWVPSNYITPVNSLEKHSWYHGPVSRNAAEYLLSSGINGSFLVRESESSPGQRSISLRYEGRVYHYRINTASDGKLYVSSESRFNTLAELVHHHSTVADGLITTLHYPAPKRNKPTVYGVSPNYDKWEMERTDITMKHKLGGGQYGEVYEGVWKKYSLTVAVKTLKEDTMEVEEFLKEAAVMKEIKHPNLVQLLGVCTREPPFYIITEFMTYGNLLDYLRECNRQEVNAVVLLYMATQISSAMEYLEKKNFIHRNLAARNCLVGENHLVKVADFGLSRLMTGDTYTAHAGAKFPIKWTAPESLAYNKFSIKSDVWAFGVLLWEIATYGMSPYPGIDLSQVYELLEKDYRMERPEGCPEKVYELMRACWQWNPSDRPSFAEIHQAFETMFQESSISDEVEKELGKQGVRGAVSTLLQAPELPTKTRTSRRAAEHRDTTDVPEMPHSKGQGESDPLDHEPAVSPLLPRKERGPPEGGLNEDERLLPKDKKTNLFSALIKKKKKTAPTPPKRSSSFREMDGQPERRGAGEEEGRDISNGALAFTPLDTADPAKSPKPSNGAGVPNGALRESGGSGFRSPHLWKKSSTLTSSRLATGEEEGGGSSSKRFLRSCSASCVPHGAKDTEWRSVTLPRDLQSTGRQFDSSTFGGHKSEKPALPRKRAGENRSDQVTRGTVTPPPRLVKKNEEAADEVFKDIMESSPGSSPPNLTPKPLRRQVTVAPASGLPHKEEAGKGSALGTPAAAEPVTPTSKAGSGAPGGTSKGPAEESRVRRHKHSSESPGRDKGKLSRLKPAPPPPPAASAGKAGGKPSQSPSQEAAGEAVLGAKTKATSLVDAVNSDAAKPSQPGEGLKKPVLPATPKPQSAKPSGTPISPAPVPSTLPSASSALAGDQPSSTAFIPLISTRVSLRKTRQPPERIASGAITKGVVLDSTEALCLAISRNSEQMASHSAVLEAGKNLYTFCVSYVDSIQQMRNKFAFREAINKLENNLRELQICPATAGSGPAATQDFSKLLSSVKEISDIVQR

concentration at 40 min [1]	EC50 for c-Abl activation [2]	CLint [3]	solubility kinetic at 1 h [4]	IC50 [5]	EC50 [8]	Papp at 3 h [9]	concentration at 3 h [10]	SMILES	fold change (FC) (Mus musculus [6])	Activity [7]	fold change (FC) (Mus musculus [11])
15600 ng/mL	251 nM	< 10 µL/min/mg	39 µM (≈ 12.1 µg/mL)	316 nM	794 nM	35.5 ×10⁻⁶ cm/s	17600 ng/mL	N#CCCC(=O)NC1=NN(c2ccc(Cl)c(Cl)c2)CC1	35	Toxic	19
	100 nM		167 µM (≈ 63.3 µg/mL)	158 nM	3160 nM	33.5 ×10⁻⁶ cm/s		O=C(NC1=NN(c2ccc(Cl)c(Cl)c2)CC1CCO)c1ccncc1 (racemic)			
